Data taken from patent US20260217765A1, “NOVEL ANTIMICROBIAL PEPTIDE DESIGNED FROM DUCK-DERIVED ANTIMICROBIAL PEPTIDE ANDUSE THEREOF” (INDUSTRY-ACADEMIC COOPERATION FOUNDATION, CHOSUN UNIVERSITY, priority 2023, published 2026).
Values after ≈ are worked out from the molar mass of the structure shown. Peptide text beside a SMILES is read from it.

Key:
[1] = test system: Acinetobacter baumannii KCTC 2508; assay type: cell-based; conditions: various salt concentrations
Experimental: To determine whether the peptides prepared in <Example 1> retain antimicrobial activity under salt concentrations present in vivo, the minimal inhibitory concentration (MIC) of the peptides was measured under various salt concentrations. Specifically, among the bacterial strains listed in Table 2, Acinetobacter baumannii KCTC 2508 was cultured in suitable medium to the mid-log phase, then diluted to a concentration of 2×10^4 cells/100 μL and dispensed into a microtiter plate (Nunc, USA). The peptides prepared in <Example 1> were serially diluted two-fold under various salt concentration conditions and added to the wells, followed by incubation at 37° C. for 18 hours. Absorbance at 600 nm was measured using a microtiter plate reader (Merck ELISA reader, Germany) to determine the MIC values for each strain. The parent peptide dCATH was used as a control.

plasmid DNA (pRSETB) = assay: Binding to bacterial DNA, agarose gel electrophoresis; conditions: 260 ng plasmid DNA, DNA/peptide ratios 1:1 to 1:4, 37° C. 10 minutes
Experimental: Accordingly, to further elucidate the mechanism by which these novel peptides exert antimicrobial activity, it was examined whether the novel peptides dCATH-A6 and dCATH-A7 bind to intracellular bacterial DNA using electrophoresis.
Specifically, 260 ng of plasmid DNA (pRSETB) was reacted with each peptide at various ratios (lanes 1 through […] represent DNA only, 1:1, 1:2, 1:3, and 1:4 DNA/peptide ratios, respectively) at 37° C. for 10 minutes. The samples were then subjected to electrophoresis on a 1% agarose gel, stained with ethidium bromide (EtBr), and visualized under UV light.

[2] = test system: Acinetobacter baumannii membrane; assay: Flow cytometry, propidium iodide, action on bacterial membrane; assay type: cell-based; conditions: peptide at twice the MIC, 37° C. 10 minutes
Experimental: To determine whether the peptides prepared in <Example 1> act on bacterial membranes, the parent peptide and the novel peptides dCATH-A1, dCATH-A2, dCATH-A3, dCATH-A4, dCATH-A5, dCATH-A6, and dCATH-A7 were analyzed using flow cytometry.
Specifically, Acinetobacter baumannii was treated with each peptide at twice the minimum inhibitory concentration (MIC), followed by incubation at 37° C. for 10 minutes. The supernatant was then removed by centrifugation at 10,000 rpm, and the bacterial cells were stained with propidium iodide (PI) at a concentration of 10 μg/mL at 4° C. for 30 minutes. Unbound PI was removed by centrifugation, and 1 mL of phosphate-buffered saline (PBS) was added to disperse any cell clumps. The effect of the peptides on the bacterial membrane was then assessed using a Beckman flow cytometer.

[3] = test system: Acinetobacter baumannii_isolate16 (antibiotic-resistant); assay type: cell-based, Acinetobacter baumannii; conditions: isolate16 (antibiotic-resistant)
Method in brief: (§1)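 Absorbance at 600 nm after 18 hours at 37° C defined the MIC, taken as the lowest peptide concentration with no visible bacterial growth. Inocula were mid-log cultures at 2×10^4 cells/100 μL receiving 2-fold serial peptide dilutions.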

[4] = test system: Acinetobacter baumannii_isolate 23 (antibiotic-resistant); assay type: cell-based, Acinetobacter baumannii; conditions: isolate 23 (antibiotic-resistant)
Method in brief: as §1

[5] = test system: Acinetobacter baumannii_isolate 26 (antibiotic-resistant); assay type: cell-based, Acinetobacter baumannii; conditions: isolate 26 (antibiotic-resistant)
Method in brief: as §1

[6] = test system: Acinetobacter baumannii_isolate 25 (antibiotic-resistant); assay type: cell-based, Acinetobacter baumannii; conditions: isolate 25 (antibiotic-resistant)
Method in brief: as §1

[7] = test system: Acinetobacter baumannii_isolate20 (antibiotic-resistant); assay type: cell-based, Acinetobacter baumannii; conditions: isolate20 (antibiotic-resistant)
Method in brief: as §1

[8] = test system: Acinetobacter baumannii_isolate 1 (antibiotic-resistant); assay type: cell-based, Acinetobacter baumannii; conditions: isolate 1 (antibiotic-resistant)
Method in brief: as §1

[9] = test system: Acinetobacter baumannii_isolate 10 (antibiotic-resistant); assay type: cell-based, Acinetobacter baumannii; conditions: isolate 10 (antibiotic-resistant)
Method in brief: as §1

[10] = test system: Acinetobacter baumannii_isolate 8 (antibiotic-resistant); assay type: cell-based, Acinetobacter baumannii; conditions: isolate 8 (antibiotic-resistant)
Method in brief: as §1

[11] = test system: Acinetobacter baumannii_isolate 4 (antibiotic-resistant); assay type: cell-based, Acinetobacter baumannii; conditions: isolate 4 (antibiotic-resistant)
Method in brief: as §1

[12] = test system: Acinetobacter baumannii_isolate 22 (antibiotic-resistant); assay type: cell-based, Acinetobacter baumannii; conditions: isolate 22 (antibiotic-resistant)
Method in brief: as §1

[13] = test system: Acinetobacter baumannii_isolate11 (antibiotic-resistant); assay type: cell-based, Acinetobacter baumannii; conditions: isolate11 (antibiotic-resistant)
Method in brief: as §1

[14] = test system: Acinetobacter baumannii_isolate 19 (antibiotic-resistant); assay type: cell-based, Acinetobacter baumannii; conditions: isolate 19 (antibiotic-resistant)
Method in brief: as §1

[15] = test system: Acinetobacter baumannii_isolate 14; assay type: cell-based, Acinetobacter baumannii; conditions: isolate 14, 24 h
Experimental: (§2) Specifically, among the bacterial strains listed in Table 2, those known to form biofilms well (Acinetobacter baumannii KCTC 2508, Acinetobacter baumannii isolate 10, and isolate 14) were cultured in the appropriate media to the mid-log phase and diluted to a cell concentration of 5×10^4 cells/100 µL, followed by inoculation into microplates (SPL). Subsequently, the peptides prepared in <Example 1> were serially 10-fold diluted with 10 mM sodium phosphate buffer (pH 7.2), and 10 μL of each dilution was added to each well. The plates were then incubated at 37° C. for 24 hours. After completely removing the supernatant, the plates were fixed with 100% methanol for 15 minutes, stained with crystal violet staining solution for 1 hour, washed three times, and then the stain was solubilized with 95% ethanol. Absorbance was measured at 595 nm using a microplate reader to determine the MBIC values for each bacterial strain.

[16] = test system: Acinetobacter baumannii_isolate 10; assay type: cell-based, Acinetobacter baumannii; conditions: isolate 10, 24 h
Experimental: as §2

Row | Compound | antimicrobial activity (MIC) under salt conditions compared to the parent peptide dCATH [1] | binding to DNA (electrophoresis) (plasmid DNA (pRSETB)) | membrane damage in Acinetobacter baumannii (shift in PI fluorescence signal) [2] | MIC [3] | MIC [4] | MIC [5] | MIC [6] | MIC [7] | MIC [8] | MIC [9] | MIC [10] | MIC [11] | MIC [12] | MIC [13] | MIC [14] | MBIC [15] | MBIC [16]
1 | CC[C@H](C)[C@H](NC(=O)[C@H](C)NC(=O)[C@H](CCCCN)NC(=O)[C@H](CCCCN)NC(=O)[C@@H](NC(=O)[C@H](CC(C)C)NC(=O)[C@H](CCC(N)=O)NC(=O)[C@H](C)NC(=O)[C@H](C)NC(=O)[C@H](CCCNC(=N)N)NC(=O)[C@@H](N)CCCCN)C(C)C)C(=O)N[C@@H](CCCCN)C(=O)N[C@@H](CCCCN)C(=O)N[C@@H](Cc1ccc(O)cc1)C(=O)N[C@@H](CCCNC(=N)N)C(=O)N[C@@H](C)C(=O)N[C@@H](Cc1c[nH]c2ccccc12)C(=O)N[C@@H](CCCCN)C(=O)N[C@@H](CCCNC(=N)N)C(=O)N[C@@H](CCCNC(=N)N)C(N)=O [dCATH-A6] (H-KRAAQLVKKAIKKYRAWKRR-NH2; N-terminus assumed) | lower MIC values than the control | did bind to DNA | no damage to the bacterial membrane | 1 µM (≈ 2.5 µg/mL) | 1 µM (≈ 2.5 µg/mL) | 2 µM (≈ 5 µg/mL) | 2 µM (≈ 5 µg/mL) | 1 µM (≈ 2.5 µg/mL) | 1 µM (≈ 2.5 µg/mL) | 2 µM (≈ 5 µg/mL) | 1 µM (≈ 2.5 µg/mL) | 1 µM (≈ 2.5 µg/mL) | 1 µM (≈ 2.5 µg/mL) | 1 µM (≈ 2.5 µg/mL) | 1 µM (≈ 2.5 µg/mL) | 2 µM | 2 µM
2 | CC[C@H](C)[C@H](NC(=O)[C@H](C)NC(=O)[C@H](CCCCN)NC(=O)[C@H](CCCCN)NC(=O)[C@@H](NC(=O)[C@H](CC(C)C)NC(=O)[C@H](CCC(N)=O)NC(=O)[C@H](C)NC(=O)[C@H](C)NC(=O)[C@H](CCCNC(=N)N)NC(=O)[C@@H](N)CCCCN)C(C)C)C(=O)N[C@@H](CCCCN)C(=O)N[C@@H](CCCCN)C(=O)N[C@@H](Cc1ccc(O)cc1)C(=O)N[C@@H](CCCNC(=N)N)C(=O)N[C@@H](C)C(=O)N[C@@H](Cc1c[nH]c2ccccc12)C(=O)N[C@@H](CCCCN)C(N)=O [dCATH-A7, KRAAQLVKKAIKKYRAWK] (H-KRAAQLVKKAIKKYRAWK-NH2; N-terminus assumed) | lower MIC values than the control | did bind to DNA | no damage to the bacterial membrane | 1 µM (≈ 2.19 µg/mL) | 1 µM (≈ 2.19 µg/mL) | 1 µM (≈ 2.19 µg/mL) | 1 µM (≈ 2.19 µg/mL) | 1 µM (≈ 2.19 µg/mL) | 1 µM (≈ 2.19 µg/mL) | 1 µM (≈ 2.19 µg/mL) | 1 µM (≈ 2.19 µg/mL) | 1 µM (≈ 2.19 µg/mL) | 1 µM (≈ 2.19 µg/mL) | 0.5 µM (≈ 1.09 µg/mL) | 1 µM (≈ 2.19 µg/mL) | 1 µM | 2 µM
